From the NIST ThermoML archive (doi:10.1016/j.jct.2012.10.023)

Columns and labels:
[1] = 101.33 kPa, Liquid; for speed of sound: Sing-around technique in a fixed-path interferometer; for mass density: Vibrating tube method
[2] = xn = mol fraction of the nth substance listed; conditions: 101 kPa, Liquid; for speed of sound: Sing-around technique in a fixed-path interferometer; for mass density: Vibrating tube method

Cc1ccccc1C [1,2-dimethylbenzene]
[1]
Conditions | mass density [kg/m3] | speed of sound [m/s]
298.15 K | 875.363 | 1348.2
308.15 K | 866.507 | 1308.2

Cc1cc(C)cc(C)c1 [1,3,5-trimethylbenzene]
[1]
Conditions | mass density [kg/m3] | speed of sound [m/s]
298.15 K | 860.862 | 1336
308.15 K | 852.659 | 1296.3

Cc1cccc(C)c1 [1,3-dimethylbenzene]
[1]
Conditions | mass density [kg/m3] | speed of sound [m/s]
298.15 K | 859.867 | 1320.1
308.15 K | 851.236 | 1279.1

Cc1ccc(C)cc1 [1,4-dimethylbenzene]
[1]
Conditions | mass density [kg/m3] | speed of sound [m/s]
298.15 K | 856.609 | 1309.5
308.15 K | 847.881 | 1268.6

CCc1ccccc1 [ethylbenzene]
[1]
Conditions | mass density [kg/m3] | speed of sound [m/s]
298.15 K | 862.433 | 1318.6
308.15 K | 853.607 | 1277.5

CCCCCCCCCO [nonan-1-ol]
[1]
Conditions | mass density [kg/m3] | speed of sound [m/s]
298.15 K | 824.271 | 1363.1
308.15 K | 817.362 | 1330.4

CCCCCCCCCO [nonan-1-ol] + Cc1cccc(C)c1
[2]
Conditions | mass density, 298.15 K [kg/m3] | mass density, 308.15 K [kg/m3] | speed of sound, 298.15 K [m/s] | speed of sound, 308.15 K [m/s]
x2 = 0 | 824.271 | 817.362 | 1363.1 | 1330.4
x2 = 0.066 | 826.04 | 819.011 | 1360.2 | 1326.5
x2 = 0.127 | 827.699 | 820.562 | 1357 | 1322.5
x2 = 0.1739 | 828.993 | 821.778 | 1354.2 | 1319.2
x2 = 0.2461 | 831.027 | 823.695 | 1349.4 | 1313.9
x2 = 0.2913 | 832.335 | 824.932 | 1346.4 | 1310.4
x2 = 0.3635 | 834.482 | 826.964 | 1341.4 | 1304.8
x2 = 0.4422 | 836.925 | 829.276 | 1335.9 | 1298.9
x2 = 0.4872 | 838.383 | 830.658 | 1332.9 | 1295.5
x2 = 0.5648 | 841.002 | 833.142 | 1328.2 | 1290.1
x2 = 0.6251 | 843.155 | 835.189 | 1324.7 | 1286.3
x2 = 0.6873 | 845.49 | 837.419 | 1321.9 | 1283
x2 = 0.7713 | 848.867 | 840.659 | 1319 | 1279.5
x2 = 0.8508 | 852.346 | 843.997 | 1317.8 | 1277.7
x2 = 0.9284 | 856.073 | 847.58 | 1318 | 1277.6

CCCCCCCCCO [nonan-1-ol] + Cc1ccccc1C
[2]
Conditions | mass density, 298.15 K [kg/m3] | mass density, 308.15 K [kg/m3] | speed of sound, 298.15 K [m/s] | speed of sound, 308.15 K [m/s]
x2 = 0 | 824.271 | 817.362 | 1363.1 | 1330.4
x2 = 0.0653 | 826.644 | 819.637 | 1361.7 | 1328.2
x2 = 0.136 | 829.283 | 822.169 | 1359.7 | 1325.5
x2 = 0.1773 | 830.871 | 823.694 | 1358.3 | 1323.7
x2 = 0.2281 | 832.869 | 825.612 | 1356.5 | 1321.4
x2 = 0.2834 | 835.111 | 827.766 | 1354.3 | 1318.8
x2 = 0.3463 | 837.756 | 830.309 | 1351.8 | 1315.8
x2 = 0.4203 | 841.015 | 833.448 | 1348.8 | 1312.5
x2 = 0.4761 | 843.593 | 835.935 | 1346.7 | 1310
x2 = 0.5478 | 847.079 | 839.304 | 1344.3 | 1307.3
x2 = 0.6327 | 851.482 | 843.569 | 1342.2 | 1304.7
x2 = 0.7121 | 855.922 | 847.884 | 1341.1 | 1303
x2 = 0.7974 | 861.062 | 852.892 | 1341 | 1302.3
x2 = 0.8695 | 865.751 | 857.475 | 1342.1 | 1302.8
x2 = 0.9287 | 869.902 | 861.543 | 1344 | 1304.3
